Converted amounts (≈) assume the structure as drawn. Read-outs that look alike come from different tables or passages of the source.
Experiments:
Staph. aureus 209P = test: MIC, standard microtiter assay; assay type: cell-based; details: Staphylococcus aureus, 209P, read-out: MIC in μg/ml, Staph. aureus 209P
Procedure: (§1) The in vitro minimal inhibitory concentration (MIC) of the AAJ-271 complex and its factors, and vancomycin were determined for a number of microorganisms using the standard microtite'r assay procedures. The results are shown in the following tables, each of which represents a different production run of the complex.
(§2) The in vitro minimal inhibitory concentration (MIC) and the in vitro minimal bactericidal concentration (MBC) of the AAJ-271 aglycones, pseudo-aglycone and vancomycin were determined for a number of microorganisms using the standard microtiter assay procedures.

Staph. aureus 2620 = test: MIC, standard microtiter assay; assay type: cell-based; details: Staphylococcus aureus, 2620, read-out: MIC in μg/ml, Staph. aureus 2620
Procedure: as §1, §2

Staph. aureus 675 = test: MIC, standard microtiter assay; assay type: cell-based; details: Staphylococcus aureus, 675, read-out: MIC in μg/ml, Staph. aureus 675
Procedure: as §1, §2

Staph. aureus HH127 = test: MIC, standard microtiter assay; assay type: cell-based; details: Staphylococcus aureus, HH127, read-out: MIC in μg/ml, Staph. aureus HH127
Procedure: as §1, §2

Staph. epidermidis 2256 = test: MIC, standard microtiter assay; assay type: cell-based; details: Staphylococcus epidermidis, 2256, read-out: MIC in μg/ml, Staph. epidermidis 2256
Procedure: as §1, §2

Staph. epidermidis 2265 = test: MIC, standard microtiter assay; assay type: cell-based; details: Staphylococcus epidermidis, 2265, read-out: MIC in μg/ml, Staph. epidermidis 2265
Procedure: as §1, §2

Staph. epidermidis 2588 = test: MIC, standard microtiter assay; assay type: cell-based; details: Staphylococcus epidermidis, 2588, read-out: MIC in μg/ml, Staph. epidermidis 2588
Procedure: as §1, §2

Staph. haemolyticus 651 = test: MIC, standard microtiter assay; assay type: cell-based
Procedure: as §1, §2

[1] = system: Staph. saprophyticus 2657; test: MIC, standard microtiter assay; assay type: cell-based; details: Staphylococcus saprophyticus, 2657, read-out: MIC in μg/ml, Staph. saprophyticus 2657
Procedure: as §1, §2

Strep. faecalis 34358 = test: MIC, standard microtiter assay; assay type: cell-based; details: Enterococcus faecalis, 34358, read-out: MIC in μg/ml, Strep. faecalis 34358
Procedure: as §1, §2

Strep. faecalis 657 = test: MIC, standard microtiter assay; assay type: cell-based; details: Enterococcus faecalis, 657, read-out: MIC in μg/ml, Strep. faecalis 657
Procedure: as §1, §2

[2] = system: Strep. pyogenes (Group A); test: MIC, standard microtiter assay; assay type: cell-based
Procedure: as §1, §2

Staph. aureus 2630 = test: Mouse protection assay; assay type: in vivo; details: Staphylococcus aureus, 2630, 1 h

CN[C@H](CC(C)C)C(=O)N[C@H]1C(=O)N[C@@H](CC(N)=O)C(=O)N[C@H]2C(=O)N[C@H]3C(=O)N[C@H](C(=O)N[C@H](C(=O)O)c4cc(O)cc(O)c4-c4cc3ccc4O)[C@H](O)c3ccc(c(Cl)c3)Oc3cc2cc(c3O[C@@H]2O[C@H](CO)[C@@H](O)[C@H](O)[C@H]2O[C@H]2C[C@](C)(N)[C@H](O)[C@H](C)O2)Oc2ccc(cc2Cl)[C@H]1O [Vancomycin, vancomycin]
MIC (Staph. aureus 209P; Table I): 1.6 µg/mL (≈ 1.1 µM) | MIC (Staph. aureus 209P; Table VIII): 0.8 µg/mL (≈ 0.552 µM) | MIC (Staph. aureus 2620; Table I): 1.6 µg/mL (≈ 1.1 µM) | MIC (Staph. aureus 2620; Table II): 3.1 µg/mL (≈ 2.14 µM) | MIC (Staph. aureus 2620; Table IX): 3.1 µg/mL (≈ 2.14 µM) | MIC (Staph. aureus 2620; Table VIII): 1.6 µg/mL (≈ 1.1 µM) | MIC (Staph. aureus 675; Table I): 1.6 µg/mL (≈ 1.1 µM) | MIC (Staph. aureus 675; Table II): 3.1 µg/mL (≈ 2.14 µM) | MIC (Staph. aureus 675; Table IX): 3.1 µg/mL (≈ 2.14 µM) | MIC (Staph. aureus 675; Table VIII): 3.1 µg/mL (≈ 2.14 µM) | MIC (Staph. aureus HH127; Table I): 1.6 µg/mL (≈ 1.1 µM) | MIC (Staph. aureus HH127; Table II): 3.1 µg/mL (≈ 2.14 µM) | MIC (Staph. aureus HH127; Table IX): 3.1 µg/mL (≈ 2.14 µM) | MIC (Staph. aureus HH127; Table VIII): 1.6 µg/mL (≈ 1.1 µM) | MIC (Staph. epidermidis 2256; Table I): 1.6 µg/mL (≈ 1.1 µM) | MIC (Staph. epidermidis 2256; Table VIII): 3.1 µg/mL (≈ 2.14 µM) | MIC (Staph. epidermidis 2265; Table I): 1.6 µg/mL (≈ 1.1 µM) | MIC (Staph. epidermidis 2265; Table II): 6.3 µg/mL (≈ 4.35 µM) | MIC (Staph. epidermidis 2265; Table IX): 6.3 µg/mL (≈ 4.35 µM) | MIC (Staph. epidermidis 2265; Table VIII): 3.1 µg/mL (≈ 2.14 µM) | MIC (Staph. epidermidis 2588; Table I): 1.6 µg/mL (≈ 1.1 µM) | MIC (Staph. epidermidis 2588; Table VIII): 6.3 µg/mL (≈ 4.35 µM) | MIC (Staph. haemolyticus 651; Staph. haemolyticus 651, Table II): 3.1 µg/mL (≈ 2.14 µM) | MIC (Staph. haemolyticus 651; Staph. haemolyticus 651, Table IX): 3.1 µg/mL (≈ 2.14 µM) | MIC (Staph. haemolyticus 651; Staph. haemolyticus 651, Table VIII): 3.1 µg/mL (≈ 2.14 µM) | MIC (Staph. haemolyticus 651; Staphylococcus haemolyticus, 651, read-out: MIC in μg/ml): 3.1 µg/mL (≈ 2.14 µM) | MIC ([1]; Table I): 1.6 µg/mL (≈ 1.1 µM) | MIC ([1]; Table VIII): 3.1 µg/mL (≈ 2.14 µM) | MIC (Strep. faecalis 34358; Table I): 1.6 µg/mL (≈ 1.1 µM) | MIC (Strep. faecalis 34358; Table II): 6.3 µg/mL (≈ 4.35 µM) | MIC (Strep. faecalis 34358; Table IX): 6.3 µg/mL (≈ 4.35 µM) | MIC (Strep. faecalis 34358; Table VIII): 3.1 µg/mL (≈ 2.14 µM) | MIC (Strep. faecalis 657; Table I): 1.6 µg/mL (≈ 1.1 µM) | MIC (Strep. faecalis 657; Table II): 3.1 µg/mL (≈ 2.14 µM) | MIC (Strep. faecalis 657; Table IX): 3.1 µg/mL (≈ 2.14 µM) | MIC (Strep. faecalis 657; Table VIII): 3.1 µg/mL (≈ 2.14 µM) | MIC ([2]; Strep. pyogenes (Group A), Table VIII): 0.8 µg/mL (≈ 0.552 µM) | MIC ([2]; Streptococcus pyogenes, read-out: MIC in μg/ml): 0.8 µg/mL (≈ 0.552 µM) | ED50 (Staph. aureus 2630): 0.78 mg/kg
